Measured values published in patent US8629168B2, “Benzoxazoles and oxazolopyridines being useful as janus kinases inhibitors” (priority 2006, dated 2014).

Key:
GST-JAK2(808-1132) = molecular target: T1, GST-JAK2(808-1132) (Homo sapiens, UniProt O60674); experiment: EPK JAK/TYK-kinase family profiling assay (Caliper mobility shift), JAK2; format: biochemical; settings: Caliper mobility shift assay of Example 187, 20 μM ATP, read-out: IC50 with Test in present Example
T1 construct: GST-JAK2(808-1132) is purchased from Invitrogen; purchased Invitrogen (Carlsbad, USA) #4288
Method in brief: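 Caliper mobility-shift assay with the GST-tagged kinase domain and a fluorescently labeled peptide substrate plus ATP, run 60 min at 30° C and then stopped with EDTA buffer. Turnover was taken as the substrate/product ratio. Compounds were tested at eight final concentrations from 10 to 0.003 μM.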

GST-JAK2 = molecular target: T2, GST-JAK2 (Homo sapiens, UniProt O60674); experiment: JAK2 kinase assay of the general description (alternative method, flash plate); format: biochemical; settings: 1.0 μM ATP, read-out: IC50 with test in general description (named “alternative method to that given in the examples”) (“flash plate”)
T2 construct: the amino acid domain ASP751-VAL1129 of the JAK2 protein
T2 sequence (O60674 751-1129): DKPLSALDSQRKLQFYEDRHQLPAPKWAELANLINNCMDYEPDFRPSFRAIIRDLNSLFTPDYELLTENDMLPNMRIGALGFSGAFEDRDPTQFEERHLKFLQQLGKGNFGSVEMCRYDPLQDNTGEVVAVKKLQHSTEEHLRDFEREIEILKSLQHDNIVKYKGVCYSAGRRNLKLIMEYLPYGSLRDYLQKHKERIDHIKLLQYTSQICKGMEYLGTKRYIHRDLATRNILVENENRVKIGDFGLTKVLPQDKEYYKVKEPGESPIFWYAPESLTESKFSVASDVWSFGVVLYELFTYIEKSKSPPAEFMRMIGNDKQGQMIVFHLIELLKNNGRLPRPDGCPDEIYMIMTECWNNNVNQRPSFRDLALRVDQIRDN

T1 sequence (O60674 808-1132): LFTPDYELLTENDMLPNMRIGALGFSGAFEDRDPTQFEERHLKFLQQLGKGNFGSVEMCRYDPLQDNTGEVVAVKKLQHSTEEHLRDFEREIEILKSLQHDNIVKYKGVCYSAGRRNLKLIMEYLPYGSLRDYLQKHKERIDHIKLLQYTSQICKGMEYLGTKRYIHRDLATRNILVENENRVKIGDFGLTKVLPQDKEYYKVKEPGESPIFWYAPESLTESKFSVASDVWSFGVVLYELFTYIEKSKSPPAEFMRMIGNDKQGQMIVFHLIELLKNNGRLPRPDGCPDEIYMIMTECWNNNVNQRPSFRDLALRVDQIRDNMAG

melting point	IC50 (GST-JAK2(808-1132))	IC50 (GST-JAK2)	Structure (SMILES)
205 to 207 °C	12 nM	40 nM	COc1cc(Nc2nc3cccc(-c4ccc(S(C)(=O)=O)cc4)c3o2)cc(OC)c1OC [Example 17, [7-(4-Methanesulfonyl-phenyl)-benzooxazol-2-yl]-(3,4,5-trimethoxy-phenyl)-amine]
247 to 252 °C	10 nM	10 nM	COc1cc(Nc2nc3cccc(-c4ccc(S(N)(=O)=O)cc4)c3o2)cc(OC)c1OC [Example 18, 4-[2-(3,4,5-Trimethoxy-phenylamino)-benzooxazol-7-yl]-benzenesulfonamide]
260 to 262 °C	19 nM	16 nM	CNS(=O)(=O)c1ccc(-c2cccc3nc(Nc4cc(OC)c(OC)c(OC)c4)oc23)cc1 [Example 21, N-Methyl-4-[2-(3,4,5-trimethoxy-phenylamino)-benzooxazol-7-yl]-benzenesulfonamide]
258 to 259 °C	19 nM	79 nM	CNC(=O)c1ccc(-c2cccc3nc(Nc4cc(OC)c(OC)c(OC)c4)oc23)cc1 [Example 24, N-Methyl-4-[2-(3,4,5-trimethoxy-phenylamino)-benzooxazol-7-yl]-benzamide]
> 280 °C	310 nM	450 nM	COc1cc(Nc2nc3ccnc(-c4ccc(S(N)(=O)=O)cc4)c3o2)cc(OC)c1OC [Example 38, 4-[2-(3,4,5-Trimethoxy-phenylamino)-oxazolo[5,4-c]pyridin-4-yl]-benzenesulfonamide]
